The source of these data is US20050038098A1, “Substituted dihydronaphthalene and isochroman compounds for the treatment of metabolic disorders, cancer and other diseases” (priority 2003, published 2005).

The test system of test [1] is carcinogen induced mammary tumors. Description: Carcinogen induced mammary tumors in Sprague Dawley rats. It counts as in vivo, rat. The note with it: combination treatment with tamoxifen (800 μg/kg) compared to tamoxifen alone. On the procedure: Procedure: Five week-old female Sprague Dawley rats (Harlan) were housed in a fixed 12-12-hr artificial light-dark cycle, and maintained on a standard rodent diet provided ad libitum. Animals were allowed two days to acclimate in this experimental environment prior to the initiation of the study.
To induce mammary tumors, the female […] were injected intraperitoneally with the carcinogen n-nitroso-n-methylurea, in a single dose of 50 mg/kg in acidified normal saline (pH4 w/acetic acid) at a final volume of 10 mg/ml (5 ml/kg). After eight weeks, mammary tumors are detected, and the tumor bearing females are sorted into treatment groups. Once sorted, the animals were housed four per cage and provided rodent diet ad libitum. All animals are treated with test compound or a vehicle for four weeks, during which time, changes in tumor size are monitored. Tumors were classified as regressing, static or progressing.
Treatment groups (n=8/group): • 1) Control (sesame oil) • 2) Tamoxifen (800 μg/kg) • 3) Compound 1 (10 mg/kg) • 4) Compound 1 (20 mg/kg) • 5) Compound 1 (50 mg/kg) • 6) Compound 1 (100 mg/kg) • 7) Compound 1 (20 mg/kg)+Tamox. (800 μg/kg) • 8) Compound 9 (75 mg/kg) • 9) Compound 11 (20 mg/kg) • 10) Compound 11 (20 mg/kg)+Tamox. (800 μg/kg) • 11) Compound 11 (50 mg/kg) […]

In test [2] the test system is THP-1 cells differentiated into macrophages (macrophage foam cells). Put plainly: Cholesterol efflux assay from macrophage foam cells. It counts as cell-based. The note with it: 1 μM final concentration, 10 μg/ml ApoA-I, 24 hr, vs non treated cells. On the procedure:
Cholesterol efflux from macrophage foam cells was assayed as described by Sparrow. et al, J. Biol. Chem., 2002, 277, 10021-10027, which is incorporated herein in its entirety by this reference. THP-1 cells obtained from ATCC (Manassas, VI), were cultured in RPMI medium (Sigma, St-Louis, Mo.), containing 10% fetal calf serum (Sigma, St-Louis, Mo.), […] 2-mercaptoethanol, 1 mM sodium pyruvate, 2 mM L-glutamine, 100 units/ml penicillin, […] streptomycin and 0.25 μg/ml amphotericin B obtained from Sigma (St-Louis, Mo.). The THP-1 cells were differentiated into macrophages in 24 well tissue culture dishes at a density of 0.5 million cells/well by incubation in the same medium plus 100 nM tetradecanoyl phorbol acetate (Sigma, St-Louis, Mo.), for 3 days.
After differentiation into macrophages, the cells were tested for cholesterol efflux as induced by Compound 11 of the invention. Cells were labeled by incubation for 24 hr in fresh growth medium containing [3H]-cholesterol (10 μCi/ml) (PerkinElmer, Boston, Mass.), and 50 μg/ml acetylated-LDL (Frederick, Md.) and 1% Fetal bovine serum (Sigma, St-Louis, Mo.). […] Media were briefly centrifuged to remove non-adherent cells, and then aliquots of both the supernatant and the dissolved cells were counted by liquid scintillation spectrometry to determine radioactivity.

For a further test, the system named is 3T3-L1 pre-adipocytes. As to conditions: comparative compound, stated as already shown; cited from earlier work.

`Cc1cc2c(cc1-c1cc(/C=C3\SC(=O)NC3=O)ccc1OC(F)(F)F)C(C(C)C)=CCC2(C)C` [Compound 1, 5[3-(8-Isopropyl-3,5,5-trimethyl-5,6-dihydro-naphthalen-2-yl)-4-trifluoromethoxy-benzylidene]-thiazolidine-2,4-dione]: the “effect on mammary tumors in combination with tamoxifen” value in test [1] was “unexpectedly improved and/or synergistic effects”. Turning to `COc1c(F)cc(/C=C2\SC(=O)NC2=O)c(F)c1-c1cc2c(cc1C)C(C)(C)OCC2(C)C` [Compound 11, 5-[2,5-Difluoro-4-methoxy-3-(1,1,4,4,7-pentamethyl-isochroman-6-yl)-benzylidene]-thiazolidine-2,4-dione], the cholesterol efflux entry in test [2] was “effective for inducing cholesterol efflux”; in test [2] (listed as compound 11), “increases cholesterol efflux”. For `Cc1cc2c(cc1-c1cc(/C=C3\SC(=O)NC3=O)ccc1OC(F)(F)F)C(C)(C)CCC2(C)C` [Compound 41, 5-[3-(3,5,5,8,8-Pentamethyl-5,6,7,8-tetrahydro-naphthalen-2-yl)-4-trifluoromethoxy-benzylidene]-thiazolidine-2,4-dione], the “inducer of adipocyte differentiation” value in the test with 3T3-L1 pre-adipocytes was “potent inducer of adipocyte differentiation”.
